{"source": "patent US4383113A", "about": "“Agricultural sulfonamides” (E. I. Du Pont de Nemours and Company, priority 1981, dated 1983)", "key": {"sugarbeet": {"system": "sugarbeet", "assay": "Test D pre-emergence on soil", "assay_type": "in vivo, sugarbeets", "settings": "1/8 kg/ha", "text": "(§1) The high herbicidal activity of one of the compounds from within the scope of the invention is evident from the results obtained in this test. The experiment concerned pre-emergence applications on soil. The containers used were 25 cm diameter plastic pots filled with Fallsington silt loam. One set of pots was planted to weeds the seeds of which were uniformly mixed with the top 1.2 cm layer of soil. The species selected were: johnsongrass (Sorghum halepense), barnyardgrass (Echinochloa crusgalli), crabgrass (Digitaria sanguinalis), giant foxtail (Setaria faberii), velvetleaf (Abutilon theophrasti), jimsonweed (Datura stramonium), mustard (Brassica arvensis) and pigweed (Amaranthus retroflexus). Another set of pots was planted to the following crops with from one to four species per pot: corn (planting depth 3.7 cm), cotton, soybeans, sunflower, Clinton oats, wheat, Black Valentine beans, rice, sorghum, peas, flax and peanuts (all at 2.5 cm depth), cucumbers, cabbage, alfalfa, safflower, sugarbeets, tomato, spinach, barley and Kentucky bluegrass (all at 1.2 cm depth). Immediately after planting, the test chemical was applied to the soil surfaces dissolved in a non-phytotoxic solvent. One pot from the weed phase and one of each of the crop species were left untreated for the purpose of comparison. […]"}, "Ky. bluegrass": {"system": "Ky. bluegrass", "assay": "Test D pre-emergence on soil", "assay_type": "in vivo, Kentucky bluegrass", "settings": "1/8 kg/ha", "text": "as §1"}, "wheat [1]": {"system": "wheat", "assay": "Test D pre-emergence on soil", "assay_type": "in vivo", "settings": "1/8 kg/ha", "text": "(§2) The high herbicidal activity of one of the compounds from within the scope of the invention is evident from the results obtained in this test. The experiment concerned pre-emergence applications on soil. The containers used were 25 cm diameter plastic pots filled with Fallsington silt loam. One set of pots was planted to weeds the seeds of which were uniformly mixed with the top 1.2 cm layer of soil. The species selected were: johnsongrass (Sorghum halepense), barnyardgrass (Echinochloa crusgalli), crabgrass (Digitaria sanguinalis), giant foxtail (Setaria faberii), velvetleaf (Abutilon theophrasti), jimsonweed (Datura stramonium), mustard (Brassica arvensis) and pigweed (Amaranthus retroflexus). Another set of pots was planted to the following crops with from one to four species per pot: corn (planting depth 3.7 cm), cotton, soybeans, sunflower, Clinton oats, wheat, Black Valentine beans, rice, sorghum, peas, flax and peanuts (all at 2.5 cm depth), cucumbers, cabbage, alfalfa, safflower, sugarbeets, tomato, spinach, barley and Kentucky bluegrass (all at 1.2 cm depth). Immediately after planting, the test chemical was applied to the soil surfaces dissolved in a non-phytotoxic solvent. One pot from the weed phase and one of each of the crop species were left untreated for the purpose of comparison. The treated and untreated pots were promptly watered with approximately 4 mm of simulated rainfall and then held in a greenhouse for several weeds. Visual weed and crop response ratings were made 28 days after treatment utilizing the rating system as described above for test procedure A. The data are given in Table XV."}, "grasses": {"system": "grasses", "assay": "Test D pre-emergence on soil", "assay_type": "in vivo", "settings": "1/64 kg/ha", "text": "as §2"}, "cabbage": {"system": "cabbage", "assay": "Test D pre-emergence on soil", "assay_type": "in vivo", "settings": "1/8 kg/ha", "text": "as §2"}, "spinach": {"system": "spinach", "assay": "Test D pre-emergence on soil", "assay_type": "in vivo", "settings": "1/8 kg/ha", "text": "as §2"}, "corn": {"system": "corn", "assay": "Test D pre-emergence on soil", "assay_type": "in vivo", "settings": "1/8 kg/ha", "text": "as §2"}, "alfalfa [2]": {"system": "alfalfa", "assay": "Test D pre-emergence on soil", "assay_type": "in vivo", "settings": "1/8 kg/ha", "text": "as §2"}, "sorghum": {"system": "sorghum", "assay": "Test D pre-emergence on soil", "assay_type": "in vivo", "settings": "1/8 kg/ha", "text": "as §2"}, "pea": {"system": "pea", "assay": "Test D pre-emergence on soil", "assay_type": "in vivo, peas", "settings": "1/8 kg/ha", "text": "as §1"}, "nutsedge [3]": {"system": "nutsedge", "assay": "Test E post-emergence", "assay_type": "in vivo, Cyperus rotundus", "text": "(§3) The containers used were 25 cm diameter plastic pots filled with fertilized and limed Fallsington silt loam. Plantings of the following weed species were made twice, at a 10-day interval: mustard (Brassica arvensis), cocklebur (Xanthium spp.), morningglory (Ipomoea hederacea), cassia (Cassia tora), velvetleaf (Abutilon theophrasti), alfalfa (used as an indicator species), kochia (Kochia scoparia), sesbania (Sesbania exaltata), Russian thistle (Salsola kali), jimsonweed (Datura stramonium),and nutsedge (Cyperus rotundus). In addition, wheat and barley were planted in separate 15 cm diameter plastic pots filled with the same soil at the time of the early planting only. All plantings were treated with the test chemicals dissolved in a non-phytotoxic solvent immediately following completion of the second planting operation. At this time, the wheat was around 15-17.5 cm tall and the barley 12.5 to 15 cm tall, both in the 2-leaf stage of growth. The weed species of the earliest planting date were from 2.5 to 12.5 cm tall. The rates of application selected were 0.004, 0.007, 0.015 and 0.030 kg/ha for the weed phase and 0.12, 0.25 and 0.50 kg/ha for wheat and barley. The post-emergence part of this test was visually rated for plant response 21 days after treatment, and the pre-emergence part 28 days after treatment."}, "mustard [4]": {"system": "mustard", "assay": "Test E post-emergence", "assay_type": "in vivo, Brassica arvensis", "text": "as §3"}, "cocklebur": {"system": "cocklebur", "assay": "Test E post-emergence", "assay_type": "in vivo, Xanthium spp.", "text": "as §3"}, "wheat [5]": {"system": "wheat", "assay": "Test E post-emergence", "assay_type": "in vivo", "settings": "1/2 kg/ha", "text": "as §3"}, "barley": {"system": "barley", "assay": "Test E post-emergence", "assay_type": "in vivo", "settings": "1/2 kg/ha", "text": "as §3"}, "purple nutsedge [6]": {"system": "purple nutsedge", "assay": "Test G surface spray", "assay_type": "in vivo, Cyperus rotundus", "settings": "high OM", "text": "(§4) Purple nutsedge tubers (Cyperus rotundus, L.) were planted about 2 cm deep in Fallsington silt loam (about 1% organic matter from Delaware) and in Flanagan loam (about 4% organic matter) from Illinois. Five tubers were planted in each 10 cm diameter plastic pot. Treatments recorded in Table XVII were applied in three different ways, i.e., soil surface spray, tuber/soil spray and soil incorporated. In surface sprays, the material was sprayed on the firmed soil surface after planting, but before nutsedge emergence. In tuber/soil sprays, the material was sprayed on exposed tubers and subtending soil before the tubers were covered with untreated soil. Soil incorporated treatments were mixed in the covering soil.\n(§5) Immediately after treating, the treated pots were misted with about 0.3 cm of water over a 90 minute period and placed in the greenhouse."}, "purple nutsedge [7]": {"system": "purple nutsedge", "assay": "Test G soil incorporated", "assay_type": "in vivo, Cyperus rotundus", "settings": ".032 kg/ha, low OM", "text": "as §4, §5"}, "sesbania": {"system": "sesbania", "assay": "Test E pre-emergence", "assay_type": "in vivo, Sesbania exaltata", "settings": "1/64 kg/ha", "text": "as §3"}, "Russian thistle": {"system": "Russian thistle", "assay": "Test E pre-emergence", "assay_type": "in vivo, Salsola kali", "text": "as §3"}, "mustard [8]": {"system": "mustard", "assay": "Test E pre-emergence", "assay_type": "in vivo, Brassica arvensis", "text": "as §3"}, "morningglory": {"system": "morningglory", "assay": "Test E pre-emergence", "assay_type": "in vivo, Ipomoea hederacea", "settings": "1/32 kg/ha", "text": "as §3"}, "nutsedge [9]": {"system": "nutsedge", "assay": "Test E pre-emergence", "assay_type": "in vivo, Cyperus rotundus", "text": "as §3"}, "alfalfa [10]": {"system": "alfalfa", "assay": "Test E pre-emergence", "assay_type": "in vivo", "text": "as §3"}, "kochia": {"system": "kochia", "assay": "Test E pre-emergence", "assay_type": "in vivo, Kochia scoparia", "text": "as §3"}}}
{"smiles": "COC(=O)c1ccccc1S(=O)(=O)NC(=O)Nc1nc(OC)cc(OC)n1", "note": "[drawing 586]", "values": [{"measurement": "response rating", "setting": "sugarbeet", "value": 10, "unit": "C"}, {"measurement": "response rating", "setting": "Ky. bluegrass", "value": 10, "unit": "C"}, {"measurement": "response rating", "setting": "wheat [1]", "value": 10, "unit": "C"}, {"measurement": "response rating", "setting": "grasses", "value": 6, "unit": "G"}, {"measurement": "response rating", "setting": "cabbage", "value": 10, "unit": "C"}, {"measurement": "response rating", "setting": "spinach", "value": 10, "unit": "C"}, {"measurement": "response rating", "setting": "corn", "value": 10, "unit": "C"}, {"measurement": "response rating", "setting": "alfalfa [2]", "value": 10, "unit": "C"}, {"measurement": "response rating", "setting": "sorghum", "value": 10, "unit": "C"}, {"measurement": "response rating", "setting": "pea", "value": 10, "unit": "C"}]}
{"smiles": "COc1nc(NC(=O)NS(=O)(=O)c2ccccc2C(=O)OC(C)C)nc(OC)n1", "note": "[drawing 589]", "values": [{"measurement": "response rating", "setting": "nutsedge [3]; 1/32 kg/ha", "value": 10, "unit": "G"}, {"measurement": "response rating", "setting": "mustard [4]; 1/32 kg/ha", "value": 10, "unit": "C"}, {"measurement": "response rating", "setting": "mustard [4]; 1/64 kg/ha", "value": 10, "unit": "C"}, {"measurement": "response rating", "setting": "mustard [4]; 1/128 kg/ha", "value": 10, "unit": "C"}, {"measurement": "response rating", "setting": "mustard [4]; 1/256 kg/ha", "value": 10, "unit": "C"}, {"measurement": "response rating", "setting": "cocklebur; 1/32 kg/ha", "value": 10, "unit": "C"}, {"measurement": "response rating", "setting": "cocklebur; 1/64 kg/ha", "value": 10, "unit": "C"}, {"measurement": "response rating", "setting": "cocklebur; 1/128 kg/ha", "value": 10, "unit": "C"}, {"measurement": "response rating", "setting": "cocklebur; 1/256 kg/ha", "value": 10, "unit": "C"}, {"measurement": "response rating", "setting": "wheat [5]", "value": 2, "unit": "G"}]}
{"smiles": "COc1nc(C)nc(NC(=O)NS(=O)(=O)c2ccccc2C(=O)OC(C)C)n1", "note": "[drawing 590]", "values": [{"measurement": "response rating", "setting": "nutsedge [3]; 1/32 kg/ha", "value": 10, "unit": "C"}, {"measurement": "response rating", "setting": "nutsedge [3]; 1/256 kg/ha", "value": 3, "unit": "G"}, {"measurement": "response rating", "setting": "mustard [4]; 1/32 kg/ha", "value": 10, "unit": "C"}, {"measurement": "response rating", "setting": "mustard [4]; 1/64 kg/ha", "value": 10, "unit": "C"}, {"measurement": "response rating", "setting": "mustard [4]; 1/128 kg/ha", "value": 10, "unit": "C"}, {"measurement": "response rating", "setting": "mustard [4]; 1/256 kg/ha", "value": 10, "unit": "C"}, {"measurement": "response rating", "setting": "cocklebur; 1/32 kg/ha", "value": 10, "unit": "C"}, {"measurement": "response rating", "setting": "cocklebur; 1/64 kg/ha", "value": 10, "unit": "C"}, {"measurement": "response rating", "setting": "cocklebur; 1/128 kg/ha", "value": 10, "unit": "C"}, {"measurement": "response rating", "setting": "cocklebur; 1/256 kg/ha", "value": 10, "unit": "C"}, {"measurement": "response rating", "setting": "barley", "value": 5, "unit": "G"}]}
{"smiles": "COC(=O)c1ccccc1S(=O)(=O)NC(=O)Nc1nc(OC)cc(OC)n1", "note": "[drawing 607]", "values": [{"measurement": "response rating after 4 weeks", "setting": "purple nutsedge [6]; .008 kg/ha", "value": 0}, {"measurement": "response rating after 4 weeks", "setting": "purple nutsedge [6]; .032 kg/ha", "value": 10, "unit": "C"}, {"measurement": "response rating after 4 weeks", "setting": "purple nutsedge [7]", "value": 10, "unit": "C"}]}
{"smiles": "COc1nc(NC(=O)NS(=O)(=O)c2ccccc2C(=O)OC(C)C)nc(OC)n1", "note": "[drawing 587]", "values": [{"measurement": "response rating", "setting": "sesbania", "value": 8, "unit": "G"}, {"measurement": "response rating", "setting": "Russian thistle; 1/32 kg/ha", "value": 9, "unit": "C"}, {"measurement": "response rating", "setting": "Russian thistle; 1/64 kg/ha", "value": 7, "unit": "C"}, {"measurement": "response rating", "setting": "Russian thistle; 1/128 kg/ha", "value": 7, "unit": "C"}, {"measurement": "response rating", "setting": "Russian thistle; 1/256 kg/ha", "value": 5, "unit": "C"}, {"measurement": "response rating", "setting": "mustard [8]; 1/32 kg/ha", "value": 10, "unit": "C"}, {"measurement": "response rating", "setting": "mustard [8]; 1/64 kg/ha", "value": 10, "unit": "C"}, {"measurement": "response rating", "setting": "mustard [8]; 1/128 kg/ha", "value": 10, "unit": "C"}, {"measurement": "response rating", "setting": "morningglory", "value": 8, "unit": "G"}, {"measurement": "response rating", "setting": "nutsedge [9]; 1/64 kg/ha", "value": 9, "unit": "G"}, {"measurement": "response rating", "setting": "nutsedge [9]; 1/128 kg/ha", "value": 8, "unit": "G"}, {"measurement": "response rating", "setting": "nutsedge [9]; 1/256 kg/ha", "value": 7, "unit": "G"}, {"measurement": "response rating", "setting": "alfalfa [10]; 1/64 kg/ha", "value": 5, "unit": "G"}, {"measurement": "response rating", "setting": "alfalfa [10]; 1/256 kg/ha", "value": 5, "unit": "G"}, {"measurement": "response rating", "setting": "kochia; 1/32 kg/ha", "value": 10, "unit": "C"}, {"measurement": "response rating", "setting": "kochia; 1/64 kg/ha", "value": 10, "unit": "C"}, {"measurement": "response rating", "setting": "kochia; 1/128 kg/ha", "value": 10, "unit": "C"}]}
